Results published in US20250262279A1, “DOSE REGIMEN FOR LONG-ACTING GLP1/GLUCAGON RECEPTOR AGONISTS” (Boehringer Ingelheim International GmbH, priority 2021, published 2025).

Experiment: Example 3: safety (AEs, laboratory, ECG, vital signs, NASH scores)
Type: in vivo, human
Procedure: • Semaglutide • Dose: 0.25, 0.25, 0.25, 0.25, 0.5, 0.5, 0.5, 0.5, 1.0 mg (weeks 9−16) once weekly • Mode of administration: Solution for injection
Safety endpoints included Columbia-Suicide Severity Rating Scale (C-SSRS) and various electrocardiograms (ECG) assessments. Safety was assessed based on adverse events (AEs), adverse event of special interest (AESIs), clinical laboratory assessments, vital signs, and physical examination. AESIs were pre-specified in the protocol as pancreatitis and hepatic injury.
Analyses of safety were descriptive.

SMILES: CC[C@H](C)[C@H](NC(=O)[C@H](Cc1ccccc1)NC(=O)[C@H](CCC(=O)O)NC(=O)[C@H](CCCCNC(=O)COCCOCCNC(=O)COCCOCCNC(=O)CC[C@H](NC(=O)CCCCCCCCCCCCCCCCC(=O)O)C(=O)O)NC(=O)[C@H](C)NC(=O)[C@H](C)NC(=O)[C@H](CCC(N)=O)NC(=O)CNC(=O)[C@H](CCC(=O)O)NC(=O)[C@H](CC(C)C)NC(=O)[C@H](Cc1ccc(O)cc1)NC(=O)[C@H](CO)NC(=O)[C@H](CO)NC(=O)[C@@H](NC(=O)[C@H](CC(=O)O)NC(=O)[C@H](CO)NC(=O)[C@@H](NC(=O)[C@H](Cc1ccccc1)NC(=O)[C@@H](NC(=O)CNC(=O)[C@H](CCC(=O)O)NC(=O)C(C)(C)NC(=O)[C@@H](N)Cc1cnc[nH]1)[C@@H](C)O)[C@@H](C)O)C(C)C)C(=O)N[C@@H](C)C(=O)N[C@@H](Cc1c[nH]c2ccccc12)C(=O)N[C@@H](CC(C)C)C(=O)N[C@H](C(=O)N[C@@H](CCCNC(=N)N)C(=O)NCC(=O)N[C@@H](CCCNC(=N)N)C(=O)NCC(=O)O)C(C)C [semaglutide, reference compound]
- deaths (Ex.3, whole trial): no deaths
- AEs leading to discontinuation of trial medication, number of patients (in vivo): 2 N
- AEs leading to discontinuation of trial medication, percentage of patients (in vivo): (4.0) %
- AEs of special interest, number of patients (in vivo): 0 N
- Any AE, number of patients (in vivo): 26 N
- Any AE, percentage of patients (in vivo): (52.0) %
- Investigator defined drug-related AEs, number of patients (in vivo): 19 N
- Investigator defined drug-related AEs, percentage of patients (in vivo): (38.0) %
- Serious AEs, number of patients (in vivo): 0 N
- Severe AEs, number of patients (in vivo): 0 N
- cases of pancreatitis (in vivo): no cases of pancreatitis
- patients with SAEs (in vivo): 0 patients
- patients with SAEs assessed as drug-related by the investigator (in vivo): 0 patients
- proportion of patients with PCSA high glucose on treatment (in vivo): 5.0%
- severe AEs and serious AEs (in vivo): no severe AEs or serious AEs
